Data as given in US7943629B2, “Sulphimides as protein kinase inhibitors” (Bayer Schering Pharma AG, priority 2006, dated 2011).

Key:
Aurora-C = biological target: T1, Aurora-C (Homo sapiens, UniProt Q9UQB9); experiment: Aurora-C kinase assay; format: biochemical; conditions: for IC50: 3 μM ATP, 22° C., 90 min; for inhibition of Aurora C kinase (in words): summary of Tab. 1
T1 construct: made in house; host or cells: transiently transfected HEK293 cells
T1 sequence (Q9UQB9 1-309): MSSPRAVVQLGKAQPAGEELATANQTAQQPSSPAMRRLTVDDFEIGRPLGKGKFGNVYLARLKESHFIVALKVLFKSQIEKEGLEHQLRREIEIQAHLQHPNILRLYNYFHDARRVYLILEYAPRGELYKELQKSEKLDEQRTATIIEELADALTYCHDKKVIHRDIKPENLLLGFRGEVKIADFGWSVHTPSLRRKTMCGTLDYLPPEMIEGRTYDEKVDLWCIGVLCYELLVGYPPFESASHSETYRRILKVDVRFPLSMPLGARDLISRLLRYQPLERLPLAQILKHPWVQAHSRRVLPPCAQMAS
Procedure: Recombinant Aurora-C protein was expressed in transiently transfected HEK293 cells and then purified. The kinase substrate used was the biotinylated peptide having the amino acid sequence biotin-FMRLRRLSTKYRT, which was purchased from Jerini AG in Berlin.
Aurora-C [5 nM in the test mixture, test volume 5 μl] was incubated in the presence of various concentrations of test substances (0 μM and 10 measurement points within the range 0.001-20 μM in duplicate) in assay buffer [25 mM HEPES pH 7.4, 0.5 mM MnCl2, 0.1 mM Na ortho-vanadate, 2.0 mM dithiothreitol, 0.05% bovine serum albumin (BSA), 0.01% Triton X-100, 3 μM adenosine trisphosphate (ATP), 0.67 nCi/μl gamma-^33P-ATP, 2.0 μM substrate peptide biotin-FMRLRRLSTKYRT, 1.0% dimethyl sulphoxide] at 22° C. for 90 min. The reaction was stopped by adding 12.5 μl of an EDTA/detection solution [16 mM EDTA, 40 mM ATP, 0.08% Triton X-100, 4 mg/ml PVT streptavidin SPA beads (from Amersham)]. After incubation for 10 minutes, the SPA beads were pelleted by centrifugation at 1000×G for 10 minutes. Measurement took place in a PerkinElmer Topcount scintillation counter. The measured data were normalized to 0% inhibition (enzyme reaction without inhibitor) and 100% inhibition (enzyme reaction in the presence of 0.1 μM staurosporine (from Sigma)). The IC50 values were determined by means of a 4-parameter fit using the company's own software.

CDK1/CycB = biological target: T2, CDK1/CycB (Homo sapiens, UniProt P06493); experiment: CDK1/CycB kinase assay; format: biochemical; conditions: 0.5 μM ATP, histone IIIS, 22° C., 10 min
T2 construct: GST; purchased ProQinase GmbH, Freiburg; host or cells: baculovirus-infected insect cells (Sf9)
Procedure: (§1) Recombinant CDK1- and CycB-GST fusion proteins, purified from baculovirus-infected insect cells (Sf9), were purchased from ProQinase GmbH, Freiburg. The histone IIIS used as kinase substrate can be purchased from Sigma. CDK1/CycB (200 ng/measurement point) was incubated in the presence of various concentrations of test substances (0 μM, and within the range 0.01-100 μM) in assay buffer [50 mM Tris/HCl pH 8.0, 10 mM MgCl2, 0.1 mM Na ortho-vanadate, 1.0 mM dithiothreitol, 0.5 μM ATP, 10 μg/measurement point histone IIIS, 0.2 μCi/measurement point ^33P-gamma-ATP, 0.05% NP40, 1.25% dimethyl sulphoxide] at 22° C. for 10 min. The reaction was stopped by adding EDTA solution (250 mM, pH 8.0, 15 μl/measurement point).
15 μl of each reaction mixture were loaded onto P30 filter strips (from Wallac), and non-incorporated ^33P-ATP was removed by washing the filter strips three times in 0.5% strength phosphoric acid for 10 min each time. After the filter strips had been dried at 70° C. for 1 hour, the filter strips were covered with scintillator strips (MeltiLex™ A, from Wallac) and baked at 90° C. for 1 hour. The amount of incorporated ^33P (substrate phosphorylation) was determined by scintillation measurement in a gamma radiation counter (Wallac).

CDK2/CycE = biological target: T3, CDK2/CycE (Homo sapiens, UniProt P24941); experiment: CDK2/CycE kinase assay; format: biochemical; conditions: 0.5 μM ATP, histone IIIS, 22° C., 10 min
T3 construct: GST; purchased ProQinase GmbH, Freiburg; host or cells: baculovirus-infected insect cells (Sf9)
Procedure: Recombinant CDK2- and CycE-GST fusion proteins, purified from baculovirus-infected insect cells (Sf9), were purchased from ProQinase GmbH, Freiburg. The histone IIIS used as kinase substrate was purchased from Sigma.
as §1, with “CDK2/CycE (50” for “Recombinant CDK1- and CycB-GST fusion proteins, purified from baculovirus-infected insect cells (Sf9), were purchased from ProQinase GmbH, Freiburg. The histone IIIS used as kinase substrate can be purchased from Sigma. CDK1/CycB (200”
15 μl of each reaction mixture were loaded onto P30 filter strips (from Wallac), and non-incorporated ^33P-ATP was removed by washing the filter strips three times in 0.5% strength phosphoric acid for 10 min each time.
After the filter strips had been dried at 70° C. for 1 hour, the filter strips were covered with scintillator strips (MeltiLex™ A, from Wallac) and baked at 90° C. for 1 hour. The amount of incorporated ^33P (substrate phosphorylation) was determined by scintillation measurement in a gamma radiation counter (Wallac).

KDR (VEGFR2) = biological target: T4, KDR (VEGFR2) (Homo sapiens, UniProt P35968); experiment: KDR kinase assay; format: biochemical; conditions: 10 μM ATP, 22° C., 45 min, HTRF
T4 construct: made in house; host or cells: E. coli
Procedure: Recombinant KDR protein was expressed in E. coli and then purified. The kinase substrate used was the biotinylated peptide having the amino acid sequence biotin-DFGLARDMYDKEYYSVG, which was purchased from Biosynthan. KDR [test volume 5 μl] was incubated in the presence of various concentrations of test substances (0 μM, and 10 measurement points within the range 0.001-20 μM in duplicate) in assay buffer [50 mM HEPES pH 7.0, 25.0 mM MgCl2, […], 0.1 mM Na ortho-vanadate, 1.0 mM dithiothreitol, 0.001% NP40, 10 μM ATP, 0.03 μM substrate peptide […], 1.0% dimethyl sulphoxide] at 22° C. for 45 min. The reaction was stopped by adding 5 μl of an EDTA/detection solution [50 mM HEPES pH 7.5, 125 mM EDTA, 0.2% BSA, 0.1 μM streptavidin-XLent (from CisBio), 2 nM PT66-Eu (from PerkinElmer)]. The fluorescence emission at 620 nm and 665 nm after excitation with light of the wavelength 350 nm was measured in a Rubystar HTRF instrument from BMG Labsystems.
The measured data (ratio of emission 665 divided by emission 620 multiplied by 10 000) were normalized to 0% inhibition (enzyme reaction without inhibitor) and 100% inhibition (all assay components apart from enzyme). The IC50 values were determined by means of a 4-parameter fit using the company's own software.

MCF7 breast tumour cells = experiment: MCF7 proliferation assay; format: cell-based, human; conditions: for IC50: Homo sapiens, MCF7, 96 h, 4 days incubation, crystal violet staining; for antiproliferative activity, MCF7 (in words): summary of Tab. 2
Procedure: Cultivated human MCF7 breast tumour cells (ATCC HTB-22) were plated out in a density of 5000 cells/measurement point in 200 μl of growth medium (RPMI1640, 10% foetal calf serum, 2 mU/mL insulin, 0.1 nM oestradiol) in a 96-well multititre plate. After 24 hours, the cells from a plate (zero plate) were stained with crystal violet (see below), while the medium in the other plates was replaced by fresh culture medium (200 μl) to which the test substances had been added in various concentrations (0 μM, and in the range 0.1-30 μM; the final concentration of the solvent dimethyl sulphoxide was 0.5%). The cells were incubated in the presence of the test substances for 4 days. The cell proliferation was determined by staining the cells with crystal violet: the cells were fixed by adding 20 μl/measurement point of an 11% strength glutaraldehyde solution at room temperature for 15 min. After the fixed cells had been washed three times with water, the plates were dried at room temperature. The cells were stained by adding 100 μl/measurement point of a 0.1% strength crystal violet solution (pH adjusted to pH 3 by adding acetic acid). After the stained cells had been washed three times with water, the plates were dried at room temperature. The dye was dissolved by adding 100 μl/measurement point of a 10% strength acetic acid solution, and the extinction was determined by photometry at a wavelength of 595 nm. The percentage change in cell growth was calculated by normalizing the measurements to the extinctions of the zero point plate (=0%) and the extinction of the untreated (0 μM) cells (=100%). The IC50 values were determined by means of a 4-parameter fit using the company's own software.

T4 sequence (P35968 20-1356, species assumed): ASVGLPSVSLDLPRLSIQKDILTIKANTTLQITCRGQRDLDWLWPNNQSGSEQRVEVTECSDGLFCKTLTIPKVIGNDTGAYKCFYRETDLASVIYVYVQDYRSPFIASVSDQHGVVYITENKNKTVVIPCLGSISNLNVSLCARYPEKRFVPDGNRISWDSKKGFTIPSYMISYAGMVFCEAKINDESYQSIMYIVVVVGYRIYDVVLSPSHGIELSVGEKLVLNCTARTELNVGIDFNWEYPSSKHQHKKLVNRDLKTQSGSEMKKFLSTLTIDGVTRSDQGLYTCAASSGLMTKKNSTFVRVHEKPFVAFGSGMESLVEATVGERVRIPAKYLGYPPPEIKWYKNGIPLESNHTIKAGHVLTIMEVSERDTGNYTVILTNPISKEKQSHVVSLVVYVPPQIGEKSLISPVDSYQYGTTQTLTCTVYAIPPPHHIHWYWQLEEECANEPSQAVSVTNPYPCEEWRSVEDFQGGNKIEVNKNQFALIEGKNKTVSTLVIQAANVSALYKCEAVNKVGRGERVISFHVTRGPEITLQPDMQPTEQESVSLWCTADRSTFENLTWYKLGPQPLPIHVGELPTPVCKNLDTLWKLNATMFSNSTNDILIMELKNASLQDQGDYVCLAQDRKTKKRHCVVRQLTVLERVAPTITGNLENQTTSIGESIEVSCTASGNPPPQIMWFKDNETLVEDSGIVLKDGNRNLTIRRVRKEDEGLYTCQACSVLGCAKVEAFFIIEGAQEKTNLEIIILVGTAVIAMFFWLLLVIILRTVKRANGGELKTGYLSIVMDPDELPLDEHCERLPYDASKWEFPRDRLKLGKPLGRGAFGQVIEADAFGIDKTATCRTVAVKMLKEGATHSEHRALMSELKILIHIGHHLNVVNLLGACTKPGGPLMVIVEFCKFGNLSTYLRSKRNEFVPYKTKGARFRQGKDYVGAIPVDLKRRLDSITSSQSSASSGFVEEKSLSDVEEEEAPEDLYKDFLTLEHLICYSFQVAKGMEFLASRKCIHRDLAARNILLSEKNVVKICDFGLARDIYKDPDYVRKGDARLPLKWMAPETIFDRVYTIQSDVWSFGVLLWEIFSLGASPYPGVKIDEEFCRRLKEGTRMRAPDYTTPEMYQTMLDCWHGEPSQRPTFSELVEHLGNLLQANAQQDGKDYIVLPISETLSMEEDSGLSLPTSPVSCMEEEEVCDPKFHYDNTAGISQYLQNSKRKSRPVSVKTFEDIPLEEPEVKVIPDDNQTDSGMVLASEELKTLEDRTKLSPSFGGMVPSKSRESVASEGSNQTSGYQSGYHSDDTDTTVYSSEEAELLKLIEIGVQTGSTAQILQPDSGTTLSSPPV
T2 sequence (P06493 whole entry): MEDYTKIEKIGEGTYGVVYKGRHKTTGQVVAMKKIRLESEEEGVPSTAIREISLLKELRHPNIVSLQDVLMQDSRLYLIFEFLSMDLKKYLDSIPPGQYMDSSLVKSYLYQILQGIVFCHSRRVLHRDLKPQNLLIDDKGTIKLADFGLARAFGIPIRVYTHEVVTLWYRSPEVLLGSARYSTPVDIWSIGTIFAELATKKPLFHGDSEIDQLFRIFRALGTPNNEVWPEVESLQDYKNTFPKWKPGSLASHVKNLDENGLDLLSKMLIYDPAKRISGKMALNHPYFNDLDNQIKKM
T2 sequence (P14635 whole entry partner): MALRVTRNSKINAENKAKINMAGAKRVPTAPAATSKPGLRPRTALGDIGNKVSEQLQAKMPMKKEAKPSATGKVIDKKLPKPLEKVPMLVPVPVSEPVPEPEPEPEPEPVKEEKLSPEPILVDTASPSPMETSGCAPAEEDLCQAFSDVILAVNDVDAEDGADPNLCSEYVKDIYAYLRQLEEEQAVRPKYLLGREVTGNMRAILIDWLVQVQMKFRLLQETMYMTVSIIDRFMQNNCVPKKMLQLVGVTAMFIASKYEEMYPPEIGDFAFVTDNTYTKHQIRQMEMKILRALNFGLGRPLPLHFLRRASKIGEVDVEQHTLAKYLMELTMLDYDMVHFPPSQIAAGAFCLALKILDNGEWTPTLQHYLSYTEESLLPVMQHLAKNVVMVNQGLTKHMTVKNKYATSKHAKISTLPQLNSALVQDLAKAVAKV

Cc1ccc(S(=O)(=O)N=S(C)c2ccc(Nc3ncc(Br)c(N[C@H](C)CO)n3)cc2)cc1 (mixture of isomers) [Example 8, (RS)—S-{4-[(5-Bromo-4-{[(R)-2-hydroxy-1-methylethyl]amino}pyrimidin-2-yl)-amino]phenyl}-S-methyl-N-(tolylsulphonyl)sulphimide]
IC50 (Aurora-C): 0.36 µM
inhibition of Aurora C kinase (in words) (Aurora-C): inhibits
IC50 (CDK1/CycB): 0.62 µM
IC50 (CDK2/CycE): 0.099 µM
IC50 (KDR (VEGFR2)): 0.022 µM
IC50 (MCF7 breast tumour cells): 0.9 µM

Cc1ccc(S(=O)(=O)N=S(C)c2ccc(Nc3ncc(Br)c(N[C@H](C)C(C)(C)O)n3)cc2)nc1 (mixture of isomers) [Example 10, (RS)—S-{4-[(5-Bromo-4-{[(R)-2-hydroxy-1,2-dimethylpropyl]amino}pyrimidin-2-yl)amino]phenyl}-S-methyl-N-[(5-methyl-2-pyridyl)sulphonyl]sulphimide]
antiproliferative activity, MCF7 (in words) (MCF7 breast tumour cells): excellent antiproliferative activity

C[C@@H](Nc1nc(Nc2ccc(S(C)=NS(=O)(=O)c3ccc(Cl)s3)cc2)ncc1Br)C(C)(C)O (mixture of isomers) [Example 17, (RS)—S-{4-[(5-Bromo-4-{[(R)-2-hydroxy-1,2-dimethylpropyl]amino}pyrimidin-2-yl)amino]phenyl}-N-[(5-chloro-2-thienyl)sulphonyl]-S-methylsulphimide]
antiproliferative activity, MCF7 (in words) (MCF7 breast tumour cells): excellent antiproliferative activity

Cc1ccc(S(=O)(=O)N=S(C)c2cccc(Nc3ncc(Br)c(NC(C)C)n3)c2)cc1 (racemic) [Example 2, (RS)—S-(3-{[5-Bromo-4-(isopropylamino)pyrimidin-2-yl]amino}phenyl)-S-methyl-N-(tolylsulphonyl)sulphimide]
IC50 (CDK1/CycB): > 1 µM
IC50 (CDK2/CycE): > 1 µM
IC50 (KDR (VEGFR2)): 0.2 µM

Cc1ccc(S(=O)(=O)N=S(C)c2ccc(Nc3ncc(Br)c(NC4CC4)n3)cc2)cc1 (racemic) [Example 3, (RS)—S-(4-{[5-Bromo-4-(cyclopropylamino)pyrimidin-2-yl]amino}phenyl)-S-methyl-N-(tolylsulphonyl)sulphimide]
IC50 (Aurora-C): 0.09 µM
inhibition of Aurora C kinase (in words) (Aurora-C): inhibits
IC50 (CDK1/CycB): > 1 µM
IC50 (KDR (VEGFR2)): 0.013 µM
IC50 (MCF7 breast tumour cells): 0.34 µM

Cc1ccc(S(=O)(=O)N=S(C)c2cccc(Nc3ncc(Br)c(NC4CC4)n3)c2)cc1 (racemic) [Example 4, (RS)—S-(3-{[5-Bromo-4-(cyclopropylamino)pyrimidin-2-yl]amino}phenyl)-S-methyl-N-(tolylsulphonyl)sulphimide]
IC50 (CDK1/CycB): > 1 µM
IC50 (CDK2/CycE): > 1 µM
IC50 (KDR (VEGFR2)): 0.17 µM

Cc1ccc(S(=O)(=O)N=S(C)c2ccc(Nc3nccc(NC(C)C)n3)cc2)cc1 (racemic) [Example 5, (RS)—S-(4-{[4-(Isopropylamino)pyrimidin-2-yl]amino}phenyl)-S-methyl-N-(tolylsulphonyl)sulphimide]
IC50 (Aurora-C): 4.6 µM
IC50 (CDK1/CycB): > 1 µM
IC50 (CDK2/CycE): > 1 µM
IC50 (KDR (VEGFR2)): 0.76 µM

Cc1ccc(S(=O)(=O)N=S(C)c2ccc(Nc3ncc(Br)c(Nc4ccccc4)n3)cc2)cc1 (racemic) [Example 6, (RS)—S-{4-[(4-Anilino-5-bromopyrimidin-2-yl)amino]phenyl}-S-methyl-N-(tolylsulphonyl)sulphimide]
IC50 (CDK1/CycB): > 1 µM
IC50 (CDK2/CycE): > 1 µM
IC50 (KDR (VEGFR2)): 0.12 µM

Cc1ccc(S(=O)(=O)N=S(C)c2ccc(Nc3ncc(Br)c(NCCO)n3)cc2)cc1 (racemic) [Example 7, (RS)—S-[4-({5-Bromo-4-[(2-hydroxyethyl)amino]pyrimidin-2-yl}amino)phenyl]-S-methyl-N-(tolylsulphonyl)sulphimide]
IC50 (Aurora-C): 0.68 µM
IC50 (CDK1/CycB): > 1 µM
IC50 (CDK2/CycE): > 1 µM
IC50 (KDR (VEGFR2)): 0.043 µM

CC(=O)NCCNc1nc(Nc2ccc(S(C)=NS(=O)(=O)c3ccc(C)cc3)cc2)ncc1Br (racemic) [Example 23, (RS)—S-{4-[(4-{[2-(Acetylamino)ethyl]amino}-5-bromopyrimidin-2-yl)amino]-phenyl}-S-methyl-N-(tolylsulphonyl)sulphimide]
IC50 (Aurora-C): 0.036 µM
IC50 (CDK1/CycB): 0.99 µM
IC50 (KDR (VEGFR2)): 0.035 µM
IC50 (MCF7 breast tumour cells): 2.2 µM
